Results reported in PubChem BioAssay AID1259407 (Chemical Carcinogenesis Research Information System (CCRIS), 2018).
Calls of active or inactive are those of the source. How the calls were made is not given here.

System: CCRIS mutagenicity, Ames/micronucleus/aberration tests
Experiment: CCRIS mutagenicity studies
[1] = Test System: AMES SALMONELLA TYPHIMURIUM, Strain/Indicator: TA100, Metabolic Activation: NONE, Method: STANDARD PLATE

ClCC(Br)CBr (stereo not drawn)
mutagenic call (End Point: IN VITRO CHROMOSOMAL ABERRATIONS, Test System: CHO CELLS, Metabolic Activation: NONE): active; positive | mutagenic call (End Point: IN VITRO CHROMOSOMAL ABERRATIONS, Test System: CHO CELLS, Metabolic Activation: RAT, LIVER, S-9, AROCLOR 1254): active; positive | mutagenic call (Test System: AMES SALMONELLA TYPHIMURIUM, Strain/Indicator: TA97, Metabolic Activation: HAMSTER, LIVER, S-9, AROCLOR 1254 (10%), Method: PREINCUBATION): active; positive | mutagenic call (Test System: AMES SALMONELLA TYPHIMURIUM, Strain/Indicator: TA97, Metabolic Activation: NONE, Method: PREINCUBATION): inactive; negative | mutagenic call (Test System: AMES SALMONELLA TYPHIMURIUM, Strain/Indicator: TA97, Metabolic Activation: RAT, LIVER, S-9, AROCLOR 1254 (10%), Method: PREINCUBATION): active; positive | mutagenic call (Test System: AMES SALMONELLA TYPHIMURIUM, Strain/Indicator: TA98, Metabolic Activation: HAMSTER, LIVER, S-9, AROCLOR 1254 (10%), Method: PREINCUBATION): active; positive | mutagenic call (Test System: AMES SALMONELLA TYPHIMURIUM, Strain/Indicator: TA98, Metabolic Activation: NONE, Method: FLASK ASSAY): inactive; negative | mutagenic call (Test System: AMES SALMONELLA TYPHIMURIUM, Strain/Indicator: TA98, Metabolic Activation: NONE, Method: PREINCUBATION): inactive; negative | mutagenic call (Test System: AMES SALMONELLA TYPHIMURIUM, Strain/Indicator: TA98, Metabolic Activation: RAT, LIVER, S-9, AROCLOR 1254 (10%), Method: PREINCUBATION): inactive; negative | mutagenic call (Test System: AMES SALMONELLA TYPHIMURIUM, Strain/Indicator: TA98, Metabolic Activation: RAT, LIVER, S-9, AROCLOR 1254, Method: FLASK ASSAY): active; positive | mutagenic call (Test System: AMES SALMONELLA TYPHIMURIUM, Strain/Indicator: TA100, Metabolic Activation: HAMSTER, LIVER, S-9, AROCLOR 1254 (10%), Method: PREINCUBATION): active; positive | mutagenic call (Test System: AMES SALMONELLA TYPHIMURIUM, Strain/Indicator: TA100, Metabolic Activation: NONE, Method: FLASK ASSAY): inactive; negative | mutagenic call (Test System: AMES SALMONELLA TYPHIMURIUM, Strain/Indicator: TA100, Metabolic Activation: NONE, Method: PREINCUBATION): inactive; negative | mutagenic call [1]: inactive; negative | mutagenic call (Test System: AMES SALMONELLA TYPHIMURIUM, Strain/Indicator: TA100, Metabolic Activation: NONE, Method: SUSPENSION/PLATE): inactive; negative | mutagenic call (Test System: AMES SALMONELLA TYPHIMURIUM, Strain/Indicator: TA100, Metabolic Activation: RAT TESTICULAR CELLS, Method: STANDARD PLATE): inactive; negative | mutagenic call (Test System: AMES SALMONELLA TYPHIMURIUM, Strain/Indicator: TA100, Metabolic Activation: RAT, HEPATOCYTES, AROCLOR 1254, Method: STANDARD PLATE): active; positive | mutagenic call (Test System: AMES SALMONELLA TYPHIMURIUM, Strain/Indicator: TA100, Metabolic Activation: RAT, HEPATOCYTES, Method: STANDARD PLATE): active; positive | mutagenic call (Test System: AMES SALMONELLA TYPHIMURIUM, Strain/Indicator: TA100, Metabolic Activation: RAT, LIVER, HEPATOCYTES, Method: SUSPENSION/PLATE): active; positive | mutagenic call (Test System: AMES SALMONELLA TYPHIMURIUM, Strain/Indicator: TA100, Metabolic Activation: RAT, LIVER, MICROSOMES, AROCLOR 1254, Method: PREINCUBATION): active; positive | mutagenic call (Test System: AMES SALMONELLA TYPHIMURIUM, Strain/Indicator: TA100, Metabolic Activation: RAT, LIVER, MICROSOMES, PHENOBARBITAL, NADPH COFACTORS, Method: STANDARD PLATE): active; positive | mutagenic call (Test System: AMES SALMONELLA TYPHIMURIUM, Strain/Indicator: TA100, Metabolic Activation: RAT, LIVER, MICROSOMES, PHENOBARBITAL, Method: PREINCUBATION): active; positive | mutagenic call (Test System: AMES SALMONELLA TYPHIMURIUM, Strain/Indicator: TA100, Metabolic Activation: RAT, LIVER, MICROSOMES, PHENOBARBITAL, Method: STANDARD PLATE): inactive; negative | mutagenic call (Test System: AMES SALMONELLA TYPHIMURIUM, Strain/Indicator: TA100, Metabolic Activation: RAT, LIVER, MICROSOMES, Method: PREINCUBATION): active; positive | mutagenic call (Test System: AMES SALMONELLA TYPHIMURIUM, Strain/Indicator: TA100, Metabolic Activation: RAT, LIVER, S-9, AROCLOR 1254 (10%), Method: PREINCUBATION): active; positive | mutagenic call (Test System: AMES SALMONELLA TYPHIMURIUM, Strain/Indicator: TA100, Metabolic Activation: RAT, LIVER, S-9, AROCLOR 1254, Method: FLASK ASSAY): active; positive | mutagenic call (Test System: AMES SALMONELLA TYPHIMURIUM, Strain/Indicator: TA100, Metabolic Activation: RAT,TESTICULAR CELLS, AROCLOR 1254, Method: STANDARD PLATE): inactive; negative | mutagenic call (Test System: AMES SALMONELLA TYPHIMURIUM, Strain/Indicator: TA100, Metabolic Activation: S-9 MIX, Method: STANDARD PLATE): active; positive | mutagenic call (Test System: AMES SALMONELLA TYPHIMURIUM, Strain/Indicator: TA1535, Metabolic Activation: HAMSTER, LIVER, S-9, AROCLOR 1254 (10%), Method: PREINCUBATION): active; positive | mutagenic call (Test System: AMES SALMONELLA TYPHIMURIUM, Strain/Indicator: TA1535, Metabolic Activation: NONE, Method: FLASK ASSAY): active; positive | mutagenic call (Test System: AMES SALMONELLA TYPHIMURIUM, Strain/Indicator: TA1535, Metabolic Activation: NONE, Method: PREINCUBATION): inactive; negative | mutagenic call (Test System: AMES SALMONELLA TYPHIMURIUM, Strain/Indicator: TA1535, Metabolic Activation: RAT, LIVER, S-9, AROCLOR 1254 (10%), Method: PREINCUBATION): active; positive | mutagenic call (Test System: AMES SALMONELLA TYPHIMURIUM, Strain/Indicator: TA1535, Metabolic Activation: RAT, LIVER, S-9, AROCLOR 1254, Method: FLASK ASSAY): active; positive | mutagenic call (Test System: AMES SALMONELLA TYPHIMURIUM, Strain/Indicator: TA1537, Metabolic Activation: HAMSTER, LIVER, S-9, AROCLOR 1254 (10%), Method: PREINCUBATION): inactive; negative | mutagenic call (Test System: AMES SALMONELLA TYPHIMURIUM, Strain/Indicator: TA1537, Metabolic Activation: NONE, Method: FLASK ASSAY): inactive; negative | mutagenic call (Test System: AMES SALMONELLA TYPHIMURIUM, Strain/Indicator: TA1537, Metabolic Activation: RAT, LIVER, S-9, AROCLOR 1254 (10%), Method: PREINCUBATION): inactive; negative | mutagenic call (Test System: AMES SALMONELLA TYPHIMURIUM, Strain/Indicator: TA1537, Metabolic Activation: RAT, LIVER, S-9, AROCLOR 1254, Method: FLASK ASSAY): inactive; negative | mutagenic call (Test System: AMES SALMONELLA TYPHIMURIUM, Strain/Indicator: TA1538, Metabolic Activation: NONE, Method: FLASK ASSAY): inactive; negative | mutagenic call (Test System: AMES SALMONELLA TYPHIMURIUM, Strain/Indicator: TA1538, Metabolic Activation: RAT, LIVER, S-9, AROCLOR 1254, Method: FLASK ASSAY): inactive; negative | mutagenic call (Test System: MOUSE LYMPHOMA, Strain/Indicator: L5178Y (TK+/TK-), Metabolic Activation: NONE, Method: SUSPENSION/PLATE): active; positive | mutagenic call (Test System: MOUSE LYMPHOMA, Strain/Indicator: L5178Y (TK+/TK-), Metabolic Activation: RAT, LIVER, S-9, AROCLOR 1254, Method: SUSPENSION/PLATE): active; positive | mutagenic call (Test System: UDS RODENT HEPATOCYTES, Strain/Indicator: THY INCORP (NON-S-PHASE), Metabolic Activation: AROCLOR 1254, Method: LIQUID SCINTILLATION COUNTING): inactive; negative | mutagenic call (Test System: UDS RODENT HEPATOCYTES, Strain/Indicator: THY INCORP (NON-S-PHASE), Metabolic Activation: NONE, Method: LIQUID SCINTILLATION COUNTING): active; positive

CCc1cc(O)cc2c3c([nH]c12)C(CC)(CC(=O)O)OCC3 (stereo not drawn)
mutagenic call (Test System: AMES SALMONELLA TYPHIMURIUM, Strain/Indicator: TA98, Metabolic Activation: NONE, Method: STANDARD PLATE): active; positive | mutagenic call (Test System: AMES SALMONELLA TYPHIMURIUM, Strain/Indicator: TA98, Metabolic Activation: RAT, LIVER, S-9 (10 OR 50 µL/PLATE), Method: STANDARD PLATE): inactive; negative | mutagenic call [1]: inactive; negative | mutagenic call (Test System: AMES SALMONELLA TYPHIMURIUM, Strain/Indicator: TA100, Metabolic Activation: RAT, LIVER, S-9 (10 OR 50 µL/PLATE), Method: STANDARD PLATE): inactive; negative | mutagenic call (Test System: AMES SALMONELLA TYPHIMURIUM, Strain/Indicator: TA1535, Metabolic Activation: NONE, Method: STANDARD PLATE): inactive; negative | mutagenic call (Test System: AMES SALMONELLA TYPHIMURIUM, Strain/Indicator: TA1535, Metabolic Activation: RAT, LIVER, S-9 (10 OR 50 µL/PLATE), Method: STANDARD PLATE): inactive; negative | mutagenic call (Test System: AMES SALMONELLA TYPHIMURIUM, Strain/Indicator: TA1537, Metabolic Activation: NONE, Method: STANDARD PLATE): inactive; negative | mutagenic call (Test System: AMES SALMONELLA TYPHIMURIUM, Strain/Indicator: TA1537, Metabolic Activation: RAT, LIVER, S-9 (10 OR 50 µL/PLATE), Method: STANDARD PLATE): inactive; negative | mutagenic call (Test System: E. COLI, Strain/Indicator: WP2 UVRA, Metabolic Activation: NONE, Method: STANDARD PLATE): inactive; negative | mutagenic call (Test System: E. COLI, Strain/Indicator: WP2 UVRA, Metabolic Activation: RAT, LIVER, S-9 (10 OR 50 µL/PLATE), Method: STANDARD PLATE): inactive; negative
